Source: patent US20240307426A1, “USE OF SGLT-2 INHIBITORS FOR THE PREVENTION AND/OR TREATMENT OF RENAL DISEASES IN NON-HUMAN MAMMALS” (BOEHRINGER INGELHEIM VETMEDICA GMBH, priority 2021, published 2024)

System: cats with chronic kidney disease (CKD)
Test: Exploratory clinical field trial in cats with CKD (Example 3)
Format: in vivo, cat
Set-up: key to IRIS Stage (based on serum creatinine level) / IRIS Stage (based on creatinine level) / IRIS Stage (based on the creatinine level): IRIS CKD stage assigned from serum creatinine (IRIS 2019)
Conditions: for Phosphorus: ref 0.8-2.2; for Serum creatinine: ref 0.9-2.3; for Potassium: ref 3.3-5.8; for UPC: ref <0.33
Description: The clinical trial was conducted at three animal clinics. Overall, 9 cats with chronic kidney disease (CKD) were included in the study and treated once daily orally with 1 mg/kg bodyweight velagliflozin for up to 150 days (depending on the time of enrollment).
Diagnosis of CKD was based on two measurements of serum creatinine concentration at least 2 weeks apart from each other (historical value and screening, and value at screening in fasted cats), as recommended by the International Renal Interest Society (IRIS 2019). In order to qualify for enrollment, serum creatinine levels needed to be ≥2.2 mg/dL, but <5.0 mg/dL.
Disease staging throughout the study was performed based on serum creatinine levels in accordance with the IRIS CKD staging (IRIS 2019).
All other cats were treated for >90 days had at least data for two time points under treatment available and were therefore evaluated. Progression of the disease, as well as IRIS staging in this study was based on the most reliable biomarker: serum creatinine.

[1] = case 200-001, 1 mg/kg po once daily
[2] = case 200-001, 1 mg/kg po once daily, whole study
[3] = case 200-001, Visit 1 (Day 30), 1 mg/kg po once daily
[4] = case 200-001, Visit 2 (Day 90), 1 mg/kg po once daily
[5] = case 200-001, Visit 3 (Day 111), 1 mg/kg po once daily
[6] = case 200-001, screening visit (before treatment)
[7] = case 200-003 (IRIS stage 3), removed early on day 30
[8] = case 200-004, 1 mg/kg po once daily, whole study
[9] = case 200-004, Visit 1 (Day 30), 1 mg/kg po once daily
[10] = case 200-004, Visit 2 (Day 90), 1 mg/kg po once daily
[11] = case 200-004, Visit 3 (Day 143), 1 mg/kg po once daily
[12] = case 200-004, screening visit (before treatment)
[13] = case 200-005, 1 mg/kg po once daily
[14] = case 200-005, 1 mg/kg po once daily, whole study
[15] = case 200-005, Visit 1 (Day 30), 1 mg/kg po once daily
[16] = case 200-005, Visit 2 (Day 90), 1 mg/kg po once daily
[17] = case 200-005, Visit 3 (Day 128), 1 mg/kg po once daily
[18] = case 200-005, screening visit (before treatment)
[19] = case 200-006, 1 mg/kg po once daily
[20] = case 200-006, 1 mg/kg po once daily, whole study
[21] = case 200-006, Visit 1 (Day 30), 1 mg/kg po once daily
[22] = case 200-006, Visit 2 (Day 90), 1 mg/kg po once daily

SMILES: N#Cc1ccc([C@@H]2O[C@H](CO)[C@@H](O)[C@H](O)[C@H]2O)cc1Cc1ccc(C2CC2)cc1 [velagliflozin, Velagliflozin]
- decrease in serum creatinine within the observation period (3 of the seven evaluated cats, 1 mg/kg po once daily): ≥ 10%
- renal parameters and clinical signs (IRIS stage 2 and 3 CKD cats, 1 mg/kg orally once daily): stabilized or even improved
- expected glucosuric effect (all cats except cat 200-004 (no data recorded)): confirmed
- Hematocrit (all cats under oral treatment with 1 mg/kg bodyweight): remained within the reference range
- Systolic blood pressure (all cats, during the course of the study): < 160 mmHg
- serum phosphate levels (all evaluated cases, except one measurement for case 200-001 on day 90): remained within the laboratories reference range throughout the study
- Proteinuria (UPC) (all patients, 1 mg/kg po once daily): ≤ 0.33
- Serum potassium levels (all treated cats, 1 mg/kg po once daily): stayed within the reference range
- adverse events [1]: Two adverse events were reported for this patient: pectin responsive diarrhea for one day and pancreatitis
- expected glucosuric effect [1]: confirmed
- Quality of life according to the owner (course) [2]: remained very good
- Serum potassium levels (course) [2]: decreased within the reference range
- UPC (course) [2]: improved from 0.4 to 0.2
- appetite and drinking behavior (course) [2]: remained normal
- condition (clinical signs and biochemical parameters) [2]: stabilization of the condition
- course of BUN [2]: remained stable
- course of serum creatinine [2]: remained stable with one single measurement on Day 90 being increased
- total urine protein [2]: reduced
- BUN [3]: 38 mg/dL
- IRIS Stage (based on the creatinine level) [3]: 2
- Owner assessment - quality of life [3]: very good
- Owner assessment of the appetite [3]: normal
- Owner assessment of the drinking behavior [3]: normal
- Systolic blood pressure [3]: 126.7 mmHg
- Phosphorus [3]: 1.3 mmol/L
- Serum creatinine [3]: 2.6 mg/dL
- Potassium [3]: 4.6 mmol/L
- Hematocrit (case 200-001, Visit 1 (Day 30), 1 mg/kg po once daily, ref 28.2-52.7): 38.5%
- BUN [4]: 47 mg/dL
- IRIS Stage (based on the creatinine level) [4]: 3
- Owner assessment - quality of life [4]: very good
- Owner assessment of the appetite [4]: normal
- Owner assessment of the drinking behavior [4]: normal
- Systolic blood pressure [4]: 122.7 mmHg
- Phosphorus [4]: 2.4 mmol/L
- Serum creatinine [4]: 3.2 mg/dL
- Potassium [4]: 4.3 mmol/L
- Hematocrit (case 200-001, Visit 2 (Day 90), 1 mg/kg po once daily, ref 28.2-52.7): 34.6%
- UPC [4]: 0.2
- BUN [5]: 41 mg/dL
- IRIS Stage (based on the creatinine level) [5]: 2
- Owner assessment - quality of life [5]: very good
- Owner assessment of the appetite [5]: normal
- Owner assessment of the drinking behavior [5]: normal
- Systolic blood pressure [5]: 131.3 mmHg
- Phosphorus [5]: 1.6 mmol/L
- Serum creatinine [5]: 2.6 mg/dL
- Potassium [5]: 4.3 mmol/L
- Hematocrit (case 200-001, Visit 3 (Day 111), 1 mg/kg po once daily, ref 28.2-52.7): 32.6%
- BUN [6]: 39 mg/dL
- IRIS Stage (based on the creatinine level) [6]: 2
- Owner assessment - quality of life [6]: very good
- Owner assessment of the appetite [6]: normal
- Owner assessment of the drinking behavior [6]: normal
- Systolic blood pressure [6]: 152.0 mmHg
- Phosphorus [6]: 1.4 mmol/L
- Serum creatinine [6]: 2.6 mg/dL
- Potassium [6]: 5.2 mmol/L
- Hematocrit (case 200-001, screening visit (before treatment), ref 28.2-52.7): 37.4%
- UPC [6]: 0.4
- appetite and drinking behavior [7]: improving to normal
- laboratory parameters [7]: worsening of a single measurement of laboratory parameters
- quality of life [7]: good quality of life
- adverse events (case 200-004, 1 mg/kg po once daily): No adverse event was reported
- Quality of life according to the owner (course) [8]: remained very good
- appetite and drinking behavior (course) [8]: remained normal
- change of IRIS stage of the disease [8]: from 3 to 2
- condition (biochemical parameters) [8]: improvement of the condition
- course of serum creatinine [8]: decreased by a clinically relevant amount
- BUN [9]: 42 mg/dL
- IRIS Stage (based on serum creatinine level) [9]: 2
- Owner assessment - quality of life [9]: very good
- Owner assessment of the appetite [9]: normal
- Owner assessment of the drinking behavior [9]: normal
- Systolic blood pressure [9]: 148.0 mmHg
- Phosphorus [9]: 1.3 mmol/L
- Serum creatinine [9]: 2.7 mg/dL
- Potassium [9]: 4.5 mmol/L
- Hematocrit (case 200-004, Visit 1 (Day 30), 1 mg/kg po once daily, ref 28.2-52.7): 37.0%
- BUN [10]: 36 mg/dL
- IRIS Stage (based on serum creatinine level) [10]: 2
- Owner assessment - quality of life [10]: very good
- Owner assessment of the appetite [10]: normal
- Owner assessment of the drinking behavior [10]: normal
- Systolic blood pressure [10]: 129.3 mmHg
- Phosphorus [10]: 1.3 mmol/L
- Serum creatinine [10]: 2.5 mg/dL
- Potassium [10]: 4.9 mmol/L
- Hematocrit (case 200-004, Visit 2 (Day 90), 1 mg/kg po once daily, ref 28.2-52.7): 32.9%
- BUN [11]: 38 mg/dL
- IRIS Stage (based on serum creatinine level) [11]: 2
- Owner assessment - quality of life [11]: very good
- Owner assessment of the appetite [11]: normal
- Owner assessment of the drinking behavior [11]: normal
- Systolic blood pressure [11]: 148.7 mmHg
- Phosphorus [11]: 1.2 mmol/L
- Serum creatinine [11]: 2.6 mg/dL
- Potassium [11]: 4.9 mmol/L
- Hematocrit (case 200-004, Visit 3 (Day 143), 1 mg/kg po once daily, ref 28.2-52.7): 34.8%
- BUN [12]: 46 mg/dL
- IRIS Stage (based on serum creatinine level) [12]: 3
- Owner assessment - quality of life [12]: very good
- Owner assessment of the appetite [12]: normal
- Owner assessment of the drinking behavior [12]: normal
- Systolic blood pressure [12]: 130.7 mmHg
- Phosphorus [12]: 1.2 mmol/L
- Serum creatinine [12]: 2.9 mg/dL
- Potassium [12]: 4.9 mmol/L
- Hematocrit (case 200-004, screening visit (before treatment), ref 28.2-52.7): 33.4%
- UPC [12]: 0.1
- Quality of life according to the owner [13]: good
- adverse events [13]: No adverse event was reported
- expected glucosuric effect [13]: confirmed
- Serum potassium levels (course) [14]: remained stable
- UPC ratio (remained at) [14]: 0.1
- appetite and drinking behavior (course) [14]: remained normal
- condition (clinical signs and biochemical parameters) [14]: stabilization of the condition
- course of BUN [14]: remained stable
- course of serum creatinine [14]: decreased
- total urine protein [14]: reduced
- BUN [15]: 37 mg/dL
- IRIS Stage (based on the creatinine level) [15]: 2
- Owner assessment - quality of life [15]: very good
- Owner assessment of the appetite [15]: normal
- Owner assessment of the drinking behavior [15]: normal
- Systolic blood pressure [15]: 148.0 mmHg
- Phosphorus [15]: 1.0 mmol/L
- Serum creatinine [15]: 2.0 mg/dL
- Potassium [15]: 4.0 mmol/L
- Hematocrit (case 200-005, Visit 1 (Day 30), 1 mg/kg po once daily, ref 28.2-52.7): 45.1%
- BUN [16]: 32 mg/dL
- IRIS Stage (based on the creatinine level) [16]: 2
- Owner assessment - quality of life [16]: good
- Owner assessment of the appetite [16]: normal
- Owner assessment of the drinking behavior [16]: normal
- Systolic blood pressure [16]: 130.0 mmHg
- Phosphorus [16]: 1.3 mmol/L
- Serum creatinine [16]: 1.9 mg/dL
- Potassium [16]: 3.9 mmol/L
- Hematocrit (case 200-005, Visit 2 (Day 90), 1 mg/kg po once daily, ref 28.2-52.7): 39.2%
- UPC [16]: 0.1
- BUN [17]: 37 mg/dL
- IRIS Stage (based on the creatinine level) [17]: 2
- Owner assessment - quality of life [17]: good
- Owner assessment of the appetite [17]: normal
- Owner assessment of the drinking behavior [17]: normal
- Systolic blood pressure [17]: 123.3 mmHg
- Phosphorus [17]: 1.1 mmol/L
- Serum creatinine [17]: 1.9 mg/dL
- Potassium [17]: 4.0 mmol/L
- Hematocrit (case 200-005, Visit 3 (Day 128), 1 mg/kg po once daily, ref 28.2-52.7): 40.4%
- BUN [18]: 37 mg/dL
- IRIS Stage (based on the creatinine level) [18]: 2
- Owner assessment - quality of life [18]: very good
- Owner assessment of the appetite [18]: normal
- Owner assessment of the drinking behavior [18]: normal
- Systolic blood pressure [18]: 139.3 mmHg
- Serum creatinine [18]: 2.2 mg/dL
- Potassium [18]: 4.9 mmol/L
- Hematocrit (case 200-005, screening visit (before treatment), ref 28.2-52.7): 42.3%
- UPC [18]: 0.1
- adverse events [19]: Three adverse events were reported: diarrhoea, vomitus as well as cystitis
- expected glucosuric effect [19]: confirmed
- Quality of life according to the owner (course) [20]: remained good
- Serum creatinine and BUN (course) [20]: remained stable
- Serum potassium levels (course) [20]: remained within the reference range
- Total urine protein and UPC [20]: remained within the reference range
- appetite (course) [20]: improved to normal
- condition (clinical signs and biochemical parameters) [20]: stable condition
- drinking behavior (course) (case 200-006, 1 mg/kg po once daily, whole study, worsening potentially due to cystitis): improved to normal but worsened again to excessive
- BUN [21]: 41 mg/dL
- IRIS Stage (based on the creatinine level) [21]: 2
- Owner assessment - quality of life [21]: good
- Owner assessment of the appetite [21]: normal
- Owner assessment of the drinking behavior [21]: normal
- Systolic blood pressure [21]: 139.3 mmHg
- Phosphorus [21]: 1.9 mmol/L
- Serum creatinine [21]: 2.7 mg/dL
- Potassium [21]: 3.9 mmol/L
- Hematocrit (case 200-006, Visit 1 (Day 30), 1 mg/kg po once daily, ref 28.2-52.7): 38.1%
- BUN [22]: 30 mg/dL
- IRIS Stage (based on the creatinine level) [22]: 2
- Owner assessment - quality of life [22]: good
- Owner assessment of the appetite [22]: normal
- Owner assessment of the drinking behavior [22]: excessive
